Earlier results in US20240148037A1, “STEVIOL GLYCOSIDE FORMULATIONS FOR FOOD AND BEVERAGES” (SWEEGEN, INC., priority 2019, published 2024).

conditions: relative to sucrose

Molecule	times sweeter than sucrose
Rebaudioside C	40-60 times
C=C1C[C@@]23CC[C@H]4[C@@](C)(CCC[C@@]4(C)C(=O)O[C@@H]4O[C@H](CO)[C@@H](O)[C@H](O)[C@H]4O)[C@@H]2CC[C@]1(O[C@@H]1O[C@H](CO)[C@@H](O)[C@H](O)[C@H]1O[C@@H]1O[C@H](CO)[C@@H](O)[C@H](O)[C@H]1O)C3 [stevioside]	100-150 times
C=C1C[C@@]23CC[C@H]4[C@@](C)(CCC[C@@]4(C)C(=O)O[C@@H]4O[C@H](CO)[C@@H](O)[C@H](O)[C@H]4O)[C@@H]2CC[C@]1(O[C@@H]1O[C@H](CO)[C@@H](O)[C@H](O)[C@H]1O[C@@H]1O[C@@H](C)[C@H](O)[C@@H](O)[C@H]1O)C3 [Dulcoside A]	about 30 times
